Experimental data: US12269808B2, “Amino dithioperacid thioester compound, preparation method therefor, and use thereof” (FUDAN UNIVERSITY, priority 2019, dated 2025)

What was measured:
[1] = test system: mouse myoblasts (C2C12) myotubes; assay: C2C12 myotube atrophy induced by C26 cell culture medium (HE staining, myotube diameter); type: cell-based; conditions: for Myotube atrophy reversal rate (%): 48 h
From the text: Carbamo(dithioperoxo)thioate analogs alleviate mouse myoblasts (C2C12) atrophy induced by mouse colon cancer cell (C26).
The diameter measurement method was used to evaluate the diameter of myotubes differentiated from mouse myoblasts (C2C12). The staining method used in the experiment was hematoxylin-eosin staining, referred to as HE staining. The hematoxylin stain is alkaline, positively charged, and easily binds to negatively charged and acidic deoxyribonucleic acid (DNA) in the nucleus with ionic bonding to show blue; while eosin is an acidic dye that dissociates into negatively charged anions in water and easily binds to the positively charged amino groups of proteins in the cytoplasm to show red. The stained cells were placed under a high-magnification microscope to take photos (magnification power: 400), and the diameter of myotubes could be counted using image J software.
The above method allows to evaluate the effect of the drug on the muscle atrophy cell model. The specific method is as follows.
C2C12 cells were seeded in 24-well plates in a culture medium of high-glucose DMEM medium containing 10% FBS and 1% P/S, and placed in a 5% CO2, 37° C. environment. When the cell density reaches 50%˜60%, the culture medium was changed into 2% HS differentiation medium (high-glucose DMEM medium containing 2% HS and 1% P/S); the differentiation medium was changed every 48 h until mature on day 5 or day 6. In addition, C26 cells were inoculated in T75 flasks, and the culture medium was changed into high-glucose DMEM medium containing 10% FBS and 1% P/S, and placed in a 5% CO2, 37° C. environment. While C26 cells (6×10^6 cells/flasks) were passaged, add 20 mL of culture medium to sequentially subculture for 48 h. To obtain the C26 supernatant, centrifuge C26 culture medium at 1000 rpm for 3 min and then at 4000 rpm for 10 min successively. The C26 supermatant and 2% HS differentiation medium were mixed 1:1 (volume ratio) as a muscle atrophy inducing medium. Except for the control group with 2% HS differentiation medium, other each group was added with the equal amounts of muscle atrophy-inducing medium and one group was used as the model group, and the rest groups were used as the experimental groups for drug administration. At the same time, carbamo(dithioperoxo)thioate compounds were added into the cells at the following gradient concentrations.
Wherein, the serial numbers correspond to the numbers of the accompanying figures, that is, FIG. 1-46 correspond to the samples of serial numbers 1-46 in Table 1. μM refers to μmol/L.
Myotube diameter was measured as follows.
After 48 h of action, the myotubes were fixed with fixative solution (anhydrous ethanol:formaldehyde:glacial acetic acid volume ratio=20:2:1) for more than 1 h, stained using hematoxylin-eosin staining method, and placed under a high-magnification microscope to acquire images and counted the diameter of myotubes using image J. The muscle atrophy reversal rate was calculated according to the following equation. Muscle atrophy reversal rate=(Average value of myotubes in drug administration group−Average value of myotubes in model group)/(Average value of myotubes in control group−Average value of myotubes in model group)×100%

[2] = test system: 3T3-L1 adipocytes; assay: 3T3-L1 adipocyte lipolysis induced by C26 medium (glycerol assay); type: cell-based, mouse; conditions: for glycerol content: 48 h, control 287.44 μM, model 441.95 μM
From the text: Experimental results of compound 4 alleviating 3T3-L1 adipocytes lipolysis.
Glycerol assay was used to evaluate intracellular lipid content. Glycerol kinase phosphorylates glycerol to glycerol 3-phosphate; glycerol 3-phosphate is oxidized by glycerophosphate oxidase to produce hydrogen peroxide; the chromogenic substrate is converted to benzoquinone imine in the presence of peroxidase, and its optical density value is proportional to the glycerol concentration.
The above methods allow to evaluate the effect of drugs on the fat lipolysis cell model. The methods are as follows:
3T3-L1 cells were seeded in 6-well plates in a culture medium (high-glucose DMEM medium containing 10% FBS and 1% P/S) and placed in a 5% CO2, 37° C. environment. The cells were allowed to grow to 100% confluence and continued to fuse for 3 days to start the differentiation operation. The culture medium for the first differentiation was high-glucose DMEM medium containing 0.5 mM IBMX, […], 1 μM dexamethasone and 10% FBS and 1% P/S, and then differentiated 3T3-L1 adipocytes for 72 h; The culture medium for the second differentiation was high-glucose DMEM medium containing […] and 10% FBS, and 1% P/S, and then differentiated 3T3-L1 adipocytes for 72 h; the culture medium for the third differentiation was high-glucose DMEM medium containing 10% FBS, and 1% P/S, and then differentiated 3T3-L1 for 72 h; After successful differentiation, it was obvious that there were a large number of oil droplets in the cells. In addition, C26 cells were inoculated in T75 flasks in the culture medium (high-glucose DMEM medium containing 10% FBS, and 1% P/S) and placed in a 5% CO2, 37° C. environment. While C26 cells (6×10^6 cells/flask) were passaged, add 15 mL of phenol red-free high-glucose DMEM culture medium to the T75 flask with 100% confluent C26 cells and sequentially subculture for 48 h. To obtain the supernatant, centrifuge C26 culture medium at 1000 rpm for 3 min and at 4000 rpm for 10 min successively, and take the supernatant to obtain the C26 supernatant successively. The C26 supernatant was mixed with phenol red-free high-glucose DMEM medium at 1:1 ratio as a fat lipolysis-inducing medium. Except for the control group with phenol red-free high-glucose DMEM medium, the other each group was added with the same amount of fat lipolysis-inducing liquid; one group was used as the model group, and the rest groups were used as the experimental groups for drug administration. At the same time, compound 4 stock solution was also added into the cells at the following concentrations of 12.5 μM, 25 μM, 50 μM, 100 μM.
The glycerol detection method was performed as follows: after 48 h of action, the glycerol content in the supernatant was detected using the glycerol detection kit from Beijing Applygen Gene Technology Co., Ltd.

[3] = test system: BALB/c mice bearing C26 tumors; assay: C26 tumor cancer cachexia animal model; type: in vivo, mouse; conditions: 5 mg/kg oral gavage (i.g)
Procedure: The experimental results of cancer cachexia animal models treated with compound 4, by the following methods.
C26 cells were cultured in T75 culture flasks in the culture medium (RPMI-1640 medium containing 10% FBS, and P/S) and placed in a 5% CO2, 37° C. environment. The cells were harvested by centrifugation at 1000 rpm for 3 min, and washed with ice-cold PBS buffer to remove the remaining culture medium and prepared into a cell suspension of 1×10^7 cells/mL. The cell suspension was inoculated into the left and right armpits of BALB/c mice with 1×10^6 cells/mouse for subsequent inoculation. When the tumor volume increased to about […], the tumor was removed and homogenized at 3.5 mL of ice-old saline/g to obtain tumor tissue suspension. The mice to be inoculated were grouped according to their body weight, and the cell suspension was inoculated into the left armpit of BALB/c mice at the amount of 100 μL/mouse. The administration of the drug was started the day after inoculation. Compound 4 was first dissolved in DMSO and then mixed with pre-warmed PBS solution (37° C.) to form a homogeneous and stable solution at a final concentration of 1 mg/mL (3% DMSO+2% anhydrous ethanol+1% polyoxyethylene castor oil). The dose was 5 mg/kg and the route of administration was oral gavage (i.g). The body weight, body temperature, tumor size and food intake of the mice were monitored daily. The mice in the model group were considered to be in the advanced stage of cachexia when they were about 10% weight loss after 16 days. The muscle grip of mice's limbs was measured, and samples of gastrocnemius muscle, epididymal fat and tumor were obtained after the mice were executed by […] and the tissue samples were weighed.
The measurement method of the muscle grasping force is as follows: The researcher holds the mouse steadily with his right hand, puts the mouse on the “YLS-13A rat and mouse grasping force measuring instrument” to let the forelimbs of mouse firmly grasp the grasping plate and uses his left hand to stabilize the grasping plate. To measure the muscle grasping force of the mouse, the researcher slowly releases his left hand from the grasping plate and immediately uses his right hand to pull the mouse's tail backward slowly until the forelimbs are free from the grasping plate. Each mouse is repeated 8 times, and the average value of the 8 times is used as the skeletal muscle strength index of each mouse.
Results and Conclusions: Referring to FIGS. 48 to 58, the three curves in the figures represent the healthy group, the C26 tumor model group and the dosing group (compound 4 group, where compound 4 was administrated at a dose of 5 mg/kg), respectively.

[4] = 25 μM, C26 medium-induced C2C12 myotubes
[5] = 50 μM, C26 medium-induced C2C12 myotubes
[6] = l00 μM, C26 medium-induced C2C12 myotubes
[7] = 12.5 μM, C26 medium-induced C2C12 myotubes
[8] = vs C26 tumor model group, p<0.05

SMILES: CCCCCCCCCCCCSSC(=S)N1CCC(O)C1 (stereo not drawn) [Compound 13]
- Myotube atrophy reversal rate (%) [1, 4]: 18.05%
- Myotube atrophy reversal rate (%) [1, 5]: 42.38%

SMILES: CCCCCCCCCCCCSSC(=S)N1CC2CCCCC2C1 (stereo not drawn) [Compound 12]
- Myotube atrophy reversal rate (%) [1, 4]: 20.85%
- Myotube atrophy reversal rate (%) [1, 5]: 49.43%
- Myotube atrophy reversal rate (%) [1, 6]: 66.73%

SMILES: CCCCCCCCCCCCSSC(=S)N1CCN(C)CC1 [Compound 16]
- Myotube atrophy reversal rate (%) [1, 4]: 31.39%
- Myotube atrophy reversal rate (%) [1, 5]: 46.75%

SMILES: CCCCCCCCCCCCSSC(=S)N1CCC2(COC2)C1 [Compound 11]
- Myotube atrophy reversal rate (%) [1, 4]: 42.30%
- Myotube atrophy reversal rate (%) [1, 5]: 64.65%

SMILES: CCCCCCCCCCCCSSC(=S)N1CCCC1 [Compound 4]
- Myotube atrophy reversal rate (%) ([1]; 3.125 μM, C26 medium-induced C2C12 myotubes): 37.78%
- Myotube atrophy reversal rate (%) ([1]; 6.25 μM, C26 medium-induced C2C12 myotubes): 54.53%
- cytotoxicity (in words) ([1]; 12.5 μM): non-cytotoxic
- Myotube atrophy reversal rate (%) [1, 7]: 92.83%
- Myotube atrophy reversal rate (%) ([1]; 12.5 μM, C26 medium-induced C2C12 myotubes, listed as compound 4): 92.83%
- glycerol content ([2]; 12.5 μM compound): 379.44 µM
- glycerol content ([2]; 25 μM compound): 347.14 µM
- glycerol content ([2]; 50 μM compound): 313.67 µM
- glycerol content ([2]; 100 μM compound): 310.95 µM
- glycerol released from 3T3-L1 mature adipocytes (in words) ([2]; 12.5-100 μM, C26 cell culture medium induced): concentration-dependent reduction
- cancer cachexia symptoms (weight loss, muscle atrophy, fat loss, body temperature decrease) [3]: alleviate the weight loss, muscle atrophy, fat degradation and body temperature decrease
- body weight with tumor vs C26 tumor model group ([3]; end of experiment, p<0.01): higher than those in the C26 tumor model group
- body weight without tumor vs C26 tumor model group ([3]; end of experiment, p<0.01): higher than those in the C26 tumor model group
- food intake ([3]; vs C26 tumor model group): higher food intake than the C26 tumor model group
- tumor volume / growth of C26 tumors ([3]; vs C26 tumor model group): no significant inhibitory effect
- epididymal fat mass [3, 8]: significantly increase the epididymal fat mass
- gastrocnemius muscle mass [3, 8]: significantly alleviate gastrocnemius muscle atrophy
- muscle grasping force [3, 8]: significantly enhance the muscle grasping force

SMILES: CCCCCCCCCCCCSSC(=S)N1CCC1 [Compound 17]
- Myotube atrophy reversal rate (%) [1, 4]: 26.34%
- Myotube atrophy reversal rate (%) [1, 5]: 53.97%

SMILES: CCCCCCCCCCCCSSC(=S)N1CCOCC1 [Compound 15]
- Myotube atrophy reversal rate (%) [1, 4]: 26.47%
- Myotube atrophy reversal rate (%) [1, 5]: 48.24%

SMILES: CCCCCCCCCCCCCSSC(=S)N1CCCC1 [Compound 5]
- Myotube atrophy reversal rate (%) [1, 4]: 23.27%
- Myotube atrophy reversal rate (%) [1, 5]: 40.28%

SMILES: CCCCCCCCCCCCCCSSC(=S)N1CCCC1 [Compound 6]
- Myotube atrophy reversal rate (%) [1, 4]: 20.41%
- Myotube atrophy reversal rate (%) [1, 5]: 35.98%
- Myotube atrophy reversal rate (%) [1, 6]: 33.80%

SMILES: CCCCCCCCCCCCSSC(=S)N1CCCCC1 [Compound 14]
- Myotube atrophy reversal rate (%) [1, 4]: 17.02%
- Myotube atrophy reversal rate (%) [1, 5]: 43.19%

SMILES: CCCCCCCCCCCCCCCCSSC(=S)N1CCCC1 [Compound 7]
- Myotube atrophy reversal rate (%) [1, 4]: 41.05%
- Myotube atrophy reversal rate (%) [1, 5]: 28.79%
- Myotube atrophy reversal rate (%) [1, 6]: 43.99%

SMILES: CCCCCCCCSSC(=S)N1CCCC1 [Compound 1]
- Myotube atrophy reversal rate (%) [1, 4]: 18.39%
- Myotube atrophy reversal rate (%) [1, 5]: 2.51%
- Myotube atrophy reversal rate (%) [1, 6]: 36.26%

SMILES: CCCCCCCCCCCCCCCCCCSSC(=S)N1CCCC1 [Compound 8]
- Myotube atrophy reversal rate (%) [1, 4]: −1.83%
- Myotube atrophy reversal rate (%) [1, 5]: 17.41%
- reversal of myotube atrophy (activity in words) ([1]; C26 medium-induced C2C12 myotubes): lower
- Myotube atrophy reversal rate (%) [1, 6]: 6.10%

SMILES: CCCCCCCCCCCCSSC(=S)N1CCc2ccccc21 [Compound 10]
- Myotube atrophy reversal rate (%) [1, 4]: 10.82%
- Myotube atrophy reversal rate (%) [1, 5]: 25.32%
- Myotube atrophy reversal rate (%) [1, 6]: 45.93%

SMILES: CCCCCCCCCCCCSSC(=S)N1Cc2ccccc2C1 [Compound 9]
- Myotube atrophy reversal rate (%) [1, 4]: 12.22%
- Myotube atrophy reversal rate (%) [1, 5]: 29.24%
- Myotube atrophy reversal rate (%) [1, 6]: 60.06%

SMILES: CCCCCCCCCCCSSC(=S)N1CCCC1 [Compound 3]
- Myotube atrophy reversal rate (%) [1, 4]: 35.76%
- Myotube atrophy reversal rate (%) [1, 5]: 33.40%
- Myotube atrophy reversal rate (%) [1, 6]: 46.11%

SMILES: CCCCCCCCCCSSC(=S)N1CCCC1 [Compound 2]
- Myotube atrophy reversal rate (%) [1, 7]: 16.94%
- Myotube atrophy reversal rate (%) [1, 4]: 43.90% (25 μM)
- Myotube atrophy reversal rate (%) [1, 5]: 61.05% (50 μM)
